The record followed here is patent EP0663912B1, “HETEROCYCLIC ETHER COMPOUNDS THAT ENHANCE COGNITIVE FUNCTION” (ABBOTT LABORATORIES, priority 1992, dated 1994).

“And” between values parts separate entries of the source, which are not always exact repeats. Identical values can stand only once. Counter-ions that a name gives are not always drawn. Where only a bound is given, the exact number is not on record here.

One test has as its system CD1 mice. Put plainly: Mouse elevated plus-maze (EPM) test of anxiolytic activity. The class given is in vivo. The text has this: The mouse elevated plus-maze is a conflict test that probes anxiolytic activity of test compounds (Lister, Psychopharmacology, 1987, 92:180). It is based on the fact that exposure of mice to an elevated open arm leads to an avoidance response considerably stronger than that evoked by exposure to an enclosed arm.
The apparatus required to perform this test is made of plywood and consists of two open arms (17 X 8 cm) and two enclosed arms (17 X 8 X 15 cm) extending from a central platform (8 X 8 cm). It is mounted on a plywood base rising 39 cm above the floor. Mice are released on the central platform and the time spent in the open and enclosed arms is recorded during a 5 minute test period. The test compounds were administered to CD1 mice 15 minutes before the test. […]

Test [1] in a line: Inhibitory (passive) avoidance (IA) test of learning/memory. In kind it is in vivo. The text has this: The inhibitory (or sometimes called passive) avoidance (IA) test is a well accepted animal model of learning/memory used to assess the activity of novel cholinergic agonists to enhance cognitive function (Wanibuchi et al., Eur. J. Pharmacol., 1990, 187:479). Animals are placed in the illuminated (12 X 14 X 11 cm) portion of a two-chambered box, from which they enter through a guillotine door to the larger (24 X 13.5 X 12 cm) dark compartment of the box. Entry to the dark compartment is accompanied by a mild (0.5 mA), brief (2 seconds) footshock. Initial latencies to cross are recorded, with an imposed 60 second ceiling. Following a 72 hour retention interval, animals are returned to the illuminated chamber, and latency to return to the dark compartment is again recorded, with a ceiling of 180 seconds. No footshock is administered on the test day.
Twelve animals were used in each group.

The subject of test [2] is cholinergic channel receptors in PC12 cells. Put plainly: Whole-cell patch-clamp measurement of cholinergic channel activation in NGF-differentiated PC12 cells. In kind it is cell-based, rat. The note with it: for CURRENT AT PEAK: holding potential -60 mV. The text has this: B. Protocols for the Determination of Cholinergic Channel Activation in PC12 Cells.
The cholinergic channel activator properties of Example 9 were investigated in PC12 cells using the whole-cell patch-clamp approach to measure current flow through ligand-gated membrane channels. […]
PC12 cells are a rat pheochromocytoma cell line that, upon treatment with nerve growth factor (NGF) differentiate into a neuronal phenotype and express nicotinic cholinergic channels (Greene & Tischier, Proceedings of the National Academy of Sciences of the United States of America, 73: 2424-2428, 1976; Dichter et al., Nature, 268: 501-504, 1977). Prominent neuronal cholinergic channel subunits in these cells are α3, α5, β2, β3 and β4 (Rogers et al., Journal of Neuroscience, 12: 4611-4623, 1992).
PC12 cells were obtained initially from ATCC and, using standard techniques were maintained in DMEM containing 10% heat-inactivated fetal calf serum and 5% heat-inactivated horse serum (37°C, 95% 02 & 5% CO2). Electrophysiologic recordings were obtained from differentiated (neurite-bearing) cells after 4-7 days exposure to NGF. For this purpose, the undifferentiated cells were first plated onto polylysine-coated 12 mm round glass coverslips in 60x15 mm plastic Petri dishes. After 20 minutes, differentiating medium was added (DMEM containing 100 ng/ml nerve growth factor, 5% heat-inactivated fetal calf serum and 2.5% heat-inactivated horse serum) and the cells were refed with this medium every 3 days.
The whole-cell patch-clamp technique was used to record voltage-activated currents and ligand-gated currents activated by substances applied through the U-tube flow-reversal technique (Fenwick et al., The Journal of Physiology (London) 331: 577-597, 1982). A coverslip bearing the cells was transferred from culture dish to the recording chamber (350 µL volume) and superfused (1 ml/min) at room temperature with an extracellular solution containing 150 mM NaCl, 2.8 mM KCI, 2.0 mM CaCl2, 1.0 mM MgCl2, ≥ 10 mM dextrose and 10 mM Na-HEPES buffer (7.3 pH, 325 mOsm). The intracellular (recording pipette) solution consisted of 140 mM KCl, 1.0 mM CaCl2, 2.0 mM MgCl2, 11 mM K-EGTA, and 10 mM K-HEPES buffer (7.3 pH, 315 mOsm). Osmolarities were adjusted using dextrose such that the extracellular solution was 10 mOsm hypertonic compared to the intracellular solution. Voltage-gated inward (sodium) and outward (potassium) currents were monitored throughout the experiment to determine establishment and maintenance of the whole-cell recording configuration.
The ligand was applied at least twice at each concentration in every cell, and applications were separated by ≥ 3 minutes to allow for recovery from desensitization, washout of the bathing solution, and re-equilibration of the U-tube. Antagonists were applied to the bathing solution through superfusion for 5-10 minutes prior to application of both antagonist and agonist through the U-tube flow reversal.
Background: Patch clamp records ionic current or voltage across a cell membrane.

[3] abbreviates: level of increase in time spent in the open arms, dose or dose range in brackets, given 15 minutes before 5 minute test.
[4] abbreviates: level of improvement in retention of the avoidance response, dose or dose range in brackets, IP 15 minutes before training, 12 animals per group.

For the compound `CN1CCC[C@H]1COc1cccnc1.O=C(O)/C=C/C(=O)O` [Example 4, 3-(1-Methyl-2-(S)-pyrrolidinylmethyloxy)pyridine fumarate], the EPM result in the test with CD1 mice (setting [3]) was “NE [0.019-0.62]”. The IA result in test [1] (setting [4]) was “significant [0.019]”.
For the compound `CN1CCCC1c1cccnc1` (single isomer, unassigned; (-)) [(-)-nicotine, reference compound], in the test with CD1 mice (mouse, in vivo), the EPM result is “significant [0.62-1.9]” and the “time spent by the mice in the open arms of the maze” value was “significant increase”. In test [1] (in vivo, ip), the IA entry is “significant [0.19-0.62]”. Also, the “CURRENT AT PEAK” value in test [2] (50 µM (-)-nicotine, individual PC12 cells A-E) was 81 pA and 108 pA and 163 pA and 539 pA. For the same compound, the “CURRENT AT PEAK, MEAN±S.E.M.” value in test [2] (50 µM (-)-nicotine, n=5 PC12 cells) turned out to be 235 ± 84 pA. Moreover, the EC50 in test [2] (PC12 cells current response) is 52 µM.
Regarding `CN1CC[C@H]1COc1cccnc1.Cl` [Example 10, 3-(1-Methyl-2-(S)-azetidinylmethyloxy)pyridine hydrochloride], the EPM entry in the test on CD1 mice (setting [3]) is “significant [0.19]”. The IA entry in test [1] (setting [4]) was “marginal [0.62]”.
For `c1cncc(OC[C@@H]2CCCN2)c1` [Example 14, 3-(2-(S)-pyrrolidinylmethyloxy)pyridine furmarate], the EPM entry in the test on CD1 mice (setting [3]) was “marginal [0.019]”. The IA entry in test [1] (setting [4]) was “NE [0.019- 0.62]”.
As for `Cc1ncccc1OC[C@@H]1CCCN1.Cl.Cl` [Example 17, 2-Methyl-3-(2-(S)-pyrrolidinylmethyloxy)pyridine dihydrochloride], in the test on CD1 mice (setting [3]), the EPM result is “significant [1.9]”. In addition, the IA entry in test [1] (setting [4]) was “significant [0.062, 0.62, 1.9]”.
With `Cc1ncccc1OC[C@@H]1CCN1.Cl.Cl` [Example 29, 2-Methyl-3-(2-(S)-azetidinylmethyloxy)pyridine dihydrochloride], the EPM entry in the test with CD1 mice (setting [3]) was “significant [0.62, 1.9]”. In test [1] (setting [4]), the IA entry is “significantly Inhibits [19]”.
Regarding `CN1CC[C@H]1COc1cnccn1.Cl` [Example 8, 2-(1-Methyl-2-(S)-azetidinylmethyloxy)pyrazine hydrochloride], the EPM result in the test with CD1 mice (setting [3]) is “NE [0.062- 1.9]”. Also, in test [1] (setting [4]), the IA result is “NE [0.062- 1.9]”.
With `Cl.c1cnc(OC[C@@H]2CCN2)cn1` [Example 7, 2-(2-(S)-azetidinylmethyloxy)pyrazine hydrochloride], the EPM entry with CD1 mice (setting [3]) was “NE [0.019-0.62]”. Moreover, the IA result in test [1] (setting [4]) was “marginal”.
On to `CC1CC[C@@H](COc2cccnc2)N1C.Cl.Cl` (stereo partly drawn) [Example 22, 3-(1-Methyl-5-methyl-2-(S)-pyrrolidinylmethyloxy)pyridine dihydrochloride], for which the EPM entry in the test on CD1 mice (setting [3]) is “NE [0.062-1.9]”. Also, the IA result in test [1] (setting [4]) is “NE [0.062- 1.9]”.
Taken in the same sequence, the figures for `c1csc(OCC23CCCN2CCC3)n1` [Example 34, 2-(1-(8-pyrrolizidinyl)methyloxy)thiazole hydrochloride salt] were “marginal [0.62]” and “NE [0.062-1.9]”.
With `CNC1(C)C2CCC(C2)C1(C)C` (centres unmarked) [Mecamylamine, reference compound], in test [2] (Mecamylamine 10 µM against Example 9 10 µM, n=4), the “inhibition of the responses to Example 9” value is given as at least 80%.
On to `CN1CCC[C@H]1COc1cncc(Cl)c1.Cl.Cl` [Example 16, 5-Chloro-3-(1-methyl-2-(S)-pyrrolidinylmethyloxy)pyridine dihydrochloride], for which, in the test on CD1 mice (setting [3]), the EPM result was “NE [0.019- 0.62]”. In addition, in test [1] (setting [4]), the IA entry is “significant [0.019]”.
Taken in the same sequence, the figures for `CN1CCC[C@H]1COc1cnccn1.O=C(O)/C=C/C(=O)O` [Example 3, 2-(1-Methyl-2-(S)-pyrrolidinylmethyloxy)pyrazine fumarate] were “NE [0.019-0.62]” and “NE [0.062-1.9]”.
Consider `Cl.c1cncc(OC[C@@H]2CCN2)c1` [Example 9, 3-(2-(S)-azetidinylmethyloxy)pyridine hydrochloride], for which the EPM result in the test on CD1 mice (setting [3]) was “significant [0.0062]”. Also, in test [1] (setting [4]), the IA result was “NE [0.0019- 0.062]”. The “CURRENT AT PEAK” value in test [2] (10 µM Example 9, individual PC12 cells A-E, hydrochloride) was 165 pA and 173 pA and 484 pA and 283 pA and 702 pA. Moreover, the “CURRENT AT PEAK, MEAN±S.E.M.” value in test [2] (10 µM Example 9, n=5 PC12 cells) was 361 ±103 pA. In addition, the “RESPONSE RATIO Example 9 /(-)-NICOTINE” value in test [2] (10 µM Example 9 versus 50 µM (-)-nicotine in the same cell, individual PC12 cells A-E, hydrochloride, 10 µM) is 203% and 161% and 171% and 173% and 130%. In addition, the “RESPONSE RATIO Example 9 /(-)-NICOTINE, MEAN±S.E.M.” value in test [2] (10 µM Example 9 versus 50 µM (-)-nicotine in the same cell, n=5) is 168 ± 12%.
For `Cl.Cl.Clc1cncc(OC[C@@H]2CCCN2)c1` [Example 15, 5-Chloro-3-(2-(S)-pyrrolidinylmethyloxy)pyridine dihydrochloride], in the test on CD1 mice (setting [3]), the EPM entry was “significant [0.062- 0.19]”. In addition, the IA result in test [1] (setting [4]) is “significantly inhibits [0.062]”.
With `Cc1ccc(OC[C@@H]2CCCN2)cn1.Cl.Cl` [Example 18, 6-Methyl-3-(2-(S)-pyrrolidinylmethyloxy)pyridine dihydrochloride], the EPM result in the test on CD1 mice (setting [3]) is “significant [0.062- 0.19]”. In addition, the IA entry in test [1] (setting [4]) was “NE [0.019- 0.62]”.
In the same order, the values of `Cc1ccc(OC[C@@H]2CCCN2C)cn1.Cl.Cl` [Example 19, 6-Methyl-3-(1-methyl-2-(S)-pyrrolidinylmethyloxy)pyridine dihydrochloride] are “NE [0.019-62]” and “NE [0.019- 0.62]”.

In general, EC50 refers to the midpoint of the concentration-response curve.
